This is an account of results in patent US9254288B2, “Susceptibility of tumors to tyrosine kinase inhibitors and treatment thereof” (THE TRANSLATIONAL GENOMICS RESEARCH INSTITUTE, priority 2012, dated 2016).

Assay [1] has as its system stable BaF3-FGFR2 cells, dovitinib-resistant FGFR2 mutants. Put plainly: BaF3 cell viability, panel of dovitinib-resistant FGFR2 mutations. To be noted: FGF10-induced proliferation.
Method: (§1) pEF1a.FGFR2b.IRES.neo or the various FGFR2b mutant plasmids were introduced into BaF3 cells using the Amaxa nucleofector kit V, according to the manufacturer's instructions (Amaxa, Walkersville, Md.). Cells were selected in growth media containing 1200 μg/ml G418 and 5 ng/ml IL3 for 14 days and frozen down.
(§2) After 72 hours, cell viability was measured using the ViaLight kit (Lonza, Walkersville, Md.). Values were normalized to DMSO vehicle control wells and IC50 values generated by nonlinear regression analysis with variable slope using Prism software version 4.0c (GraphPad Software, San Diego, Calif.). […] Following 72 hours of drug treatment, cell viability was assessed using the CyQUANT Cell Proliferation Assay Kit (Life Technologies, Carlsbad, Calif.). Values were normalized to DMSO vehicle control wells and IC50 values calculated as described above. Proliferation assays were performed in triplicate on two independent days and the results averaged.
The test system of another assay is BaF3/FGFR2b N550K. Put plainly: BaF3 cell viability (ViaLight), FGFR2b N550K. To be noted: for activity against or resistance of N550K, cell viability: BaF3 N550K. It is filed as cell-based, murine.
The test system of the next assay is BaF3 FGFR2 K660E. The assay is described as follows: BaF3 cell viability, FGFR2 K660E.
The subject of another assay is MFE280. The following applies: MFE280, FGFR-mutant EC line; cited from earlier work.
For the next assay, the system named is EJ. The assay is described as follows: Endometrial cancer cell viability, EJ. The class given is cell-based. The following applies: Homo sapiens, 72 h.
Another assay relates to EI. Put plainly: Endometrial cancer cell viability, EI. The following applies: 72 h. The class given is cell-based.
Another assay relates to EN1078D. The assay is described as follows: Endometrial cancer cell viability, EN1078D. It is filed as cell-based. The following applies: 72 h.
For assay [2], the system named is BaF3 cells expressing the E719G mutant FGFR2. Put plainly: BaF3 cell viability, FGFR2b E719G. The class given is cell-based, murine. The following applies: E719G alone vs wild-type FGFR2.
Another assay has as its system AN3CA. To be noted: cited from earlier work.
A further assay relates to MFE296. To be noted: MFE296, carries N550K FGFR2 mutation; cited from earlier work.
The test system of assay [3] is endometrial cancer cell lines. The assay is described as follows: Endometrial cancer cell line panel viability (CyQUANT). The following applies: FGFR2 mutant and wild-type endometrial cancer lines, 72 hours.
Method: as §2
The test system of a further assay is BaF3/FGFR2b wildtype. Put plainly: BaF3 cell viability (ViaLight), wild-type FGFR2b. It is filed as cell-based, murine. To be noted: Mus musculus, BaF3, 72 h, read-out: IC50 value in BaF3/FGFR2b wildtype.
The subject of assay [4] is JHUEM-2 cells expressing FGFR2N550K. The assay is described as follows: JHUEM-2 cells stably expressing FGFR2N550K, cell viability. The class given is cell-based. To be noted: JHUEM-2 FGFR2N550K vs control lines (FIG. 8A).
In another assay the test system is BaF3 FGFR2 V565I. Put plainly: BaF3 cell viability, FGFR2b V565I gatekeeper mutant. The class given is cell-based, murine.

Some results are limits rather than exact numbers.

Method for BaF3 FGFR2 K660E: as §1, §2

On to `CCN1CCN(c2ccc(Nc3cc(N(C)C(=O)Nc4c(Cl)c(OC)cc(OC)c4Cl)ncn3)cc2)CC1` [BGJ398], for which the “sensitivity or resistance of the FGFR2 mutation panel, cell viability” value (shortened to “sensitivity or resistance”) in [1] is listed as “all FGFR2 kinase mutations except the V565I from the mutation panel are sensitive”. Besides, the “activity against or resistance of N550K, cell viability” value in the assay on BaF3/FGFR2b N550K is recorded as “good activity”. Moreover, in the assay on BaF3 FGFR2 K660E, the “activity against K660E activating mutation, cell viability” value is reported as “good activity”.

On to `CNC(=O)c1cc(Oc2ccc(NC(=O)Nc3cc(C(C)(C)C)nn3-c3ccc4ncccc4c3)c(F)c2)ccn1` [DCC2036], for which the “sensitivity or resistance” value in assay [1] was “most FGFR2 kinase mutations except N550K from this BaF3 resistance screen are sensitive”.

In the case of `CCN(CC)CCCCNc1ncc2cc(-c3cc(OC)cc(OC)c3)c(NC(=O)NC(C)(C)C)nc2n1` [PD173074], the “growth arrest and cell death” value with MFE280 is “induced G1 growth arrest and cell death”; in the assay on AN3CA (FGFR-mutant EC line), “induced G1 growth arrest and cell death”. In addition, the “sensitivity or resistance” value in assay [1] is on record as “imparted resistance”. For the same compound, the IC50 with EJ was > 4000 nM; in the assay on EI it was > 4000 nM; with EN1078D, > 4000 nM; with BaF3/FGFR2b N550K (Mus musculus, BaF3, 72 h, read-out: IC50 value in N550K resistance cells), 776 nM; in the assay with BaF3/FGFR2b wildtype, 4.5 nM. Moreover, in [2], the “resistance conferred by E719G mutation” value was “did not induce resistance”. Also, the “sensitivity to FGFR inhibition” value in the assay with AN3CA (carries N550K FGFR2 mutation) and in the assay with MFE296 was “sensitive” throughout. In addition, the “order of sensitivity across the cell line panel” value in assay [3] is “least sensitive”. Moreover, the “fold difference in IC50, N550K versus wildtype” value in the assay with BaF3/FGFR2b N550K (BaF3/FGFR2b N550K vs wildtype) is “over 170 fold”. The “activity against or resistance of N550K, cell viability” value in the assay on BaF3/FGFR2b N550K is on record as “greatest resistance”. Moreover, in assay [4], the “fold increase in the IC50” value is ~5 fold. Moreover, the “activity against or resistance of V565I gatekeeper mutation, cell viability” value in the assay with BaF3 FGFR2 V565I was “greatest resistance”.
